The target in the assay is T1, B7-1/CD28 (Homo sapiens, UniProt P33681).
T1 sequence (P33681 35-242 limits assumed): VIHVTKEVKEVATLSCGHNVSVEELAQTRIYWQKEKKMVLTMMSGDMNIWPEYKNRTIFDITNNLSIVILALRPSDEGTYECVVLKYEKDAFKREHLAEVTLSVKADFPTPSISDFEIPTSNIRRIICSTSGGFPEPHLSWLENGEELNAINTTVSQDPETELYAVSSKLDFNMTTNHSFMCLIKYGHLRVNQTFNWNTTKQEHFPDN
Nature of the assay: CD28/B7-1 ELISA (B7-1/CD28 binding inhibition). As to conditions: CD28-Fc coated wells; B7-1-Fc-biotin/streptavidin-alkaline phosphatase detection complex; 1% DMSO. The protocol:
Evaluation of B7-1/CD28 Binding Inhibition for Test Compounds
Wells are coated with 300 ng CD28-Fc in carbonate buffer (pH 9.4) overnight at 4° C., blocked with 1% bovine serum albumin in tris-buffered saline (TBS) for 1 h at 22° C. and washed 3 times in TBS prior to assay. The detection complex is formed as follows: B7-1-Fc-biotin, prepared using NHS-LC-biotin (Pierce #21335) according to the manufacturers instructions (4.1 moles biotinimole Fc), is added at 0.8 ug/ml to streptavidin-alkaline phosphatase (Caltag Sa1008) at 1:1000 in TBS. A solution of test compound in dimethylsulfoxide (1% final) are added to this complex and incubated 30 min at 22° C. Detection complex (+/−inhibitors) is then added to the CD28 coated wells for 25 min at 22° C., washed 5 times with TBS, developed with the colorimetric substrate pNPP (Pierce #34045) in diethanolamine/MgCl2 buffer (pH 9.5) and read at 405 nm. The inhibition constant (IC50) is calculated by subtracting background binding and comparing to uninhibited (DMSO alone) controls. The inhibition constant represents the concentration of test compound required to achieve 50% inhibition.

Among the data in patent US6734190B2, “Dihydrodipyrazolopyridinylbenzamide and -sulfonamide inhibitors of B7-1” (Wyeth, priority 2002, dated 2004) are IC50 values, retold here.

Regarding `Cn1ncc2c3[nH]n(-c4ccc(S(=O)(=O)NCC(=O)O)cc4)c(=O)c3c(-c3cccc(C(F)(F)F)c3)nc21` [Example 107, ({[4-(6-methyl-3-oxo-4-[3-(trifluoromethyl)phenyl]-3,6-dihydrodipyrazolo[3,4-b:3,4-d]pyridin-2(1H)-yl)phenyl]sulfonyl}amino)acetic acid], the IC50 is 450 nM.

With `Cn1ncc2c3[nH]n(-c4ccc(Cl)c(C(=O)N5CCC[C@@H]5CO)c4)c(=O)c3c(-c3cccc(C(F)(F)F)c3)nc21` [Example 23, 2-(4-chloro-3-{[(2R)-2-(hydroxymethyl)pyrrolidin-1-yl]carbonyl}phenyl)-6-methyl-4-[3-(trifluoromethyl)phenyl]-1,6-dihydrodipyrazolo[3,4-b:3,4-d]pyridin-3(2H)-one], the IC50 was found to be 43 nM.

Consider `Cn1ncc2c3[nH]n(-c4ccc(C(=O)N5CCSC5)cc4)c(=O)c3c(-c3cccc(C(F)(F)F)c3)nc21` [Example 83], for which the IC50 stood at 110 nM.

In turn, `Cn1ncc2c3[nH]n(-c4ccc(C(=O)N5CCCC(O)C5)cc4)c(=O)c3c(-c3cccc(C(F)(F)F)c3)nc21` (stereo not shown) [Example 95] displayed an IC50 of 390 nM.

As for `CC1CCCN(C(=O)c2cccc(-n3[nH]c4c(c(-c5cccc(C(F)(F)F)c5)nc5c4cnn5C)c3=O)c2)C1` (stereo not shown) [Example 57], the 50% inhibitory concentration (IC50) amounted to 92 nM.

The compound `Cn1ncc2c3[nH]n(-c4ccc(S(=O)(=O)NCCO)cc4)c(=O)c3c(-c3cccc(C(F)(F)F)c3)nc21` [Example 104, N-(2-hydroxyethyl)-4-(6-methyl-3-oxo-4-[3-(trifluoromethyl)phenyl]-3,6-dihydrodipyrazolo[3,4-b:3,4-d]pyridin-2(1H)-yl)benzenesulfonamide] registered an IC50 of 950 nM.

Regarding `COC(CN(C)C(=O)c1ccc(-n2[nH]c3c(c(-c4cccc(C(F)(F)F)c4)nc4c3cnn4C)c2=O)cc1)OC` [Example 80], the IC50 was found to be 170 nM.

Take `Cn1ncc2c3[nH]n(-c4ccc(C(=O)Nc5cccnc5)cc4)c(=O)c3c(-c3cccc(C(F)(F)F)c3)nc21` [Example 79]: the IC50 is 180 nM.

The compound `Cn1ncc2c3[nH]n(-c4ccc(C(=O)Nc5ccc(F)c(F)c5)cc4)c(=O)c3c(-c3cccc(C(F)(F)F)c3)nc21` [Example 82] returned an IC50 of 120 nM.

Compound `Cn1ncc2c3[nH]n(-c4ccc(S(=O)(=O)NCCCCCO)cc4)c(=O)c3c(-c3cccc(C(F)(F)F)c3)nc21` [Example 102, N-(5-Hydroxypentyl)-4-{6-methyl-3-oxo-4-[3-(trifluoromethyl)phenyl]-3,6-dihydrodipyrazolo[3,4-b:3′,4′-d]pyridin-2(1H)-yl}benzenesulfonamide] showed an IC50 of 670 nM.

`Cn1ncc2c3[nH]n(-c4cccc(C(=O)NCCOCCOCCN)c4)c(=O)c3c(-c3cccc(C(F)(F)F)c3)nc21` [Example 46] displayed an IC50 of 150 nM.

Turning to `Cn1ncc2c3[nH]n(-c4ccc(C(=O)N5CCCC5)cc4)c(=O)c3c(-c3cccc(C(F)(F)F)c3)nc21` [Example 81], the IC50 stood at 110 nM.

Compound `CC(O)CNC(=O)c1ccc(-n2[nH]c3c(c(-c4cccc(C(F)(F)F)c4)nc4c3cnn4C)c2=O)cc1` (stereo not shown) [Example 76] had an IC50 of 50 nM.

The compound `Cn1ncc2c3[nH]n(-c4ccc(C(=O)Nc5ccccc5CO)cc4)c(=O)c3c(-c3cccc(C(F)(F)F)c3)nc21` [Example 86] yielded an IC50 of 40 nM.

Consider `COC(=O)CNS(=O)(=O)c1ccc(-n2[nH]c3c(c(-c4cccc(C(F)(F)F)c4)nc4c3cnn4C)c2=O)cc1` [Example 105, methyl ({[4-(6-methyl-3-oxo-4-[3-(trifluoromethyl)phenyl]-3,6-dihydrodipyrazolo[3,4-b:3,4-d]pyridin-2(1H)-yl)phenyl]sulfonyl}amino)acetate], for which the concentration for half-maximal inhibition (IC50) came out at 340 nM.

Turning to `CN(Cc1ccccc1)C(=O)c1cccc(-n2[nH]c3c(c(-c4cccc(C(F)(F)F)c4)nc4c3cnn4C)c2=O)c1` [Example 56], the IC50 turned out to be 180 nM.

Consider `Cn1ncc2c3[nH]n(-c4cccc(C(=O)N5CCC(O)CC5)c4)c(=O)c3c(-c3cccc(C(F)(F)F)c3)nc21` [Example 59], for which the IC50 was 105 nM.

`Cn1ncc2c3[nH]n(-c4ccc(C(=O)N5CCSCC5)cc4)c(=O)c3c(-c3cccc(C(F)(F)F)c3)nc21` [Example 77] returned an IC50 of 140 nM.

As for `Cn1ncc2c3[nH]n(-c4cccc(C(=O)Nc5ccc(F)c(F)c5)c4)c(=O)c3c(-c3cccc(C(F)(F)F)c3)nc21` [Example 47], the IC50 was 280 nM.

As for `Cn1ncc2c3[nH]n(-c4ccc(F)c(C(=O)Nc5ccc(CO)cc5)c4)c(=O)c3c(-c3cccc(C(F)(F)F)c3)nc21` [Example 68], the IC50 is 370 nM.

In turn, `Cn1ncc2c3[nH]n(-c4ccc(S(=O)(=O)NCc5ccccc5)cc4)c(=O)c3c(-c3cccc(C(F)(F)F)c3)nc21` [Example 103, N-benzyl-4-[6-methyl-3-oxo-4-(3-trifluoromethyl-phenyl)-3,6-dihydro-1H-1,2,5,6,7-pentaaza-as-indacen-2-yl]-benzenesulfonamide] came in with a half-inhibitory concentration (IC50) of 1500 nM.

As for `CCN(CC)C(=O)C1CCCN(C(=O)c2cccc(-n3[nH]c4c(c(-c5cccc(C(F)(F)F)c5)nc5c4cnn5C)c3=O)c2)C1` (stereo not shown) [Example 58], the half-inhibitory concentration (IC50) was found to be 110 nM.

In the case of `Cn1ncc2c3[nH]n(-c4cccc(C(=O)N5CCc6ccccc6C5)c4)c(=O)c3c(-c3cccc(C(F)(F)F)c3)nc21` [Example 52], the half-maximal inhibitory concentration (IC50) came out at 300 nM.

Consider `Cn1ncc2c3[nH]n(-c4ccc(C(=O)NCc5ccc(F)cc5)cc4)c(=O)c3c(-c3cccc(C(F)(F)F)c3)nc21` [Example 91], for which the IC50 was 67 nM.

Compound `CC(O)c1cccc(NC(=O)c2cccc(-n3[nH]c4c(c(-c5cccc(C(F)(F)F)c5)nc5c4cnn5C)c3=O)c2)c1` (stereo not shown) [Example 51] came in with an IC50 of 130 nM.

`Cn1ncc2c3[nH]n(-c4cccc(C(=O)NN)c4)c(=O)c3c(-c3cccc(C(F)(F)F)c3)nc21` [Example 44]: the half-inhibitory concentration (IC50) came to 80 nM.

For `CCC(O)c1cccc(NC(=O)c2ccc(-n3[nH]c4c(c(-c5cccc(C(F)(F)F)c5)nc5c4cnn5C)c3=O)cc2)c1` (stereo not shown) [Example 100], the IC50 stood at 800 nM.

Take `CC(O)c1cccc(NC(=O)c2cc(-n3[nH]c4c(c(-c5cccc(C(F)(F)F)c5)nc5c4cnn5C)c3=O)ccc2F)c1` (stereo not shown) [Example 65]: the IC50 came out at 1000 nM.

`Cn1ncc2c3[nH]n(-c4cccc(C(=O)Nc5ccc(O)cc5)c4)c(=O)c3c(-c3cccc(C(F)(F)F)c3)nc21` [Example 7, N-(4-hydroxyphenyl)-3-(6-methyl-3-oxo-4-[3-(trifluoromethyl)phenyl]-3,6-dihydrodipyrazolo[3,4-b:3,4-d]pyridin-2(1H)-yl)benzamide] came in with an IC50 of 38 nM.

`Cn1ncc2c3[nH]n(-c4cccc(C(=O)NCC5CC5)c4)c(=O)c3c(-c3cccc(C(F)(F)F)c3)nc21` [Example 12] showed an IC50 of 80 nM.

`COC(CN(C)C(=O)c1cccc(-n2[nH]c3c(c(-c4cccc(C(F)(F)F)c4)nc4c3cnn4C)c2=O)c1)OC` [Example 8, N-(2,2-dimethoxyethyl)-N-methyl-3-(6-methyl-3-oxo-4-[3-(trfluoromethyl)phenyl]-3,6-dihydrodipyrazolo[3,4-b:3,4-d]pyridin-2(1H)-yl)benzamide] displayed a 50% inhibitory concentration (IC50) of 31 nM.

In turn, `Cn1ncc2c3[nH]n(-c4ccc(C(=O)NCC5CC5)cc4)c(=O)c3c(-c3cccc(C(F)(F)F)c3)nc21` [Example 75] gave an IC50 of 107 nM.

Compound `Cn1ncc2c3[nH]n(-c4cccc(C(=O)N5CCC(C(=O)O)CC5)c4)c(=O)c3c(-c3cccc(C(F)(F)F)c3)nc21` [Example 54] displayed a half-maximal inhibitory concentration (IC50) of 860 nM.

With `Cn1ncc2c3[nH]n(-c4ccc(C(=O)Nc5ccc(CO)cc5)cc4)c(=O)c3c(-c3cccc(C(F)(F)F)c3)nc21` [Example 87], the IC50 worked out at 44 nM.

In turn, `COC(=O)CNC(=O)c1cccc(-n2[nH]c3c(c(-c4cccc(C(F)(F)F)c4)nc4c3cnn4C)c2=O)c1` [Example 45] showed an IC50 of 100 nM.

Compound `CC(C)c1ccc(NC(=O)c2ccc(-n3[nH]c4c(c(-c5cccc(C(F)(F)F)c5)nc5c4cnn5C)c3=O)cc2)cc1` [Example 78] gave an IC50 of 120 nM.

The compound `Cn1ncc2c3[nH]n(-c4cccc(C(=O)Nc5ccc(CCO)cc5)c4)c(=O)c3c(-c3cccc(C(F)(F)F)c3)nc21` [Example 55] registered a half-maximal inhibitory concentration (IC50) of 110 nM.

Turning to `Cn1ncc2c3[nH]n(-c4cccc(C(=O)N5CCSCC5)c4)c(=O)c3c(-c3cccc(C(F)(F)F)c3)nc21` [Example 10], the half-inhibitory concentration (IC50) amounted to 70 nM.

As for `Cn1ncc2c3[nH]n(-c4cccc(C(=O)Nc5cccc(CO)c5)c4)c(=O)c3c(-c3cccc(C(F)(F)F)c3)nc21` [Example 50], the IC50 was determined as 100 nM.

On to `Cn1ncc2c3[nH]n(-c4cccc(C(=O)N5CCOCC5)c4)c(=O)c3c(-c3cccc(C(F)(F)F)c3)nc21` [Example 6], for which the IC50 worked out at 54 nM.

As to `Cn1ncc2c3[nH]n(-c4ccc(F)c(C(=O)N5CCOCC5)c4)c(=O)c3c(-c3cccc(C(F)(F)F)c3)nc21` [Example 66], the IC50 came to 2400 nM.

Consider `COCCCNC(=O)c1cccc(-n2[nH]c3c(c(-c4cccc(C(F)(F)F)c4)nc4c3cnn4C)c2=O)c1` [Example 63], for which the half-inhibitory concentration (IC50) turned out to be 180 nM.

As for `CN(CCC#N)C(=O)c1ccc(-n2[nH]c3c(c(-c4cccc(C(F)(F)F)c4)nc4c3cnn4C)c2=O)cc1` [Example 72], the IC50 turned out to be 110 nM.
